Molecules are shown by their SMILES.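 Dose response: 5 concentrations. Exposure: 48 h. Format: 96-well plates. Endpoint: linear interpolation; highest concentration if not reached. The concentration for 50% growth inhibition is given as GI50.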 Calls of active or inactive are those of the source. Cut-off read from the data, not from the text of the source: active = GI50 up to about 1.1 µM and inactive = higher.

Some test systems named below: DMS-273; M19-MEL; DMS-114; SNB-78; DLD-1; XF498; T47D; HOP-18.
Common to all, as to experiment: NCI tumour cell line growth inhibition, 48 h

As for `COc1cc(C2Oc3cc(-c4oc5cc(O)cc(O)c5c(=O)c4O)ccc3OC2CO)ccc1O` (configuration not stated) [DEHYDROSILYLBIN], the GI50 in the assay with DMS-273 was 5.85 µM (inactive); with M19-MEL it was 14.4 µM (inactive); with DMS-114, 9.86 µM (inactive); in the assay with SNB-78, > 46.6 µM (inactive); with DLD-1 it was 14.5 µM (inactive); in the assay on XF498, 10.8 µM (inactive).
On to `CC#CC(O)(C(=O)OC1CCCN(C)C1)C1=CC=CCC1` (configuration not stated), for which, in the assay on T47D, the GI50 is > 100 µM (inactive).
On the same count and under the same terms, the same measure for `COc1cc2c3c(c4cc(OC)c(OC)cc4c2cc1OC)[C@H](O)[C@@H]1CCCN1C3`: 0.0269 µM (active); for `COc1ccc(C[n+]2cccc(O)c2)cc1`: > 100 µM (inactive).
Same read-out and setting: for `O=C(NC(Nc1ccc(F)c(Cl)c1)(C(F)(F)F)C(F)(F)F)OCc1ccccc1` the value was 28.1 µM (inactive).
On the same count and under the same terms, for `CC1OC(OC2C(OC(=O)[C@@H]3CC(C)(C)C[C@@H]4C5=CC[C@@H]6[C@@]7(C)C[C@H](O)[C@H](OC8OC(CO)C(O)C(O)C8O)[C@@](C)(CO)C7[C@H](O)C[C@@]6(C)[C@]5(C)C[C@@H](O)[C@H]43)OCC(O)C2O)C(O)C(O)C1O` (some centres not stated) the value was > 15 µM (inactive); for `O=C1CC(c2ccc([N+](=O)[O-])cc2)C2(C(=O)NC(=S)NC2=O)C(c2ccc([N+](=O)[O-])cc2)C1` (configuration not stated), 51.3 µM (inactive).
In the case of `COc1cc2cc3c4c(cc(OC)c(OC)c4c2cc1OC)CCN3C(=O)N(C)C`, the GI50 in the assay with DMS-273 is 89.1 µM (inactive); in the assay with M19-MEL it was > 100 µM (inactive); in the assay on DMS-114, > 100 µM (inactive); in the assay on SNB-78, > 100 µM (inactive); with DLD-1, > 100 µM (inactive).
On to `CC1CCC2C(C(=O)O[C@H]3C4C=CO[C@@H](OC5OC(CO)C(O)C(O)C5O)C4[C@@]4(CO)O[C@@H]34)=CO[C@@H](OC3OC(CO)C(O)C(O)C3O)C12` (some centres not stated), for which the GI50 in the assay on T47D is > 10 µM (inactive).
Still for that read-out and setting: for `C=CC(=O)N1C/C(=C\c2ccc(N(C)C)cc2)C(=O)/C(=C/c2ccc(N(C)C)cc2)C1` the value was > 100 µM (inactive); for `Nc1ccccc1SC(C[N+](=O)[O-])c1ccc2c(c1)OCO2` (configuration not stated), 4.18 µM (inactive); for `C=CCc1ccccc1C1CC2(C(=O)OC)OC1C(C(=O)OC)=C2C(=O)OC` (configuration not stated), > 10 µM (inactive).
In the case of `CCOC(=O)c1c2cccccc2n2c(=O)cc(C)nc12`, the GI50 with DMS-273 and in the assay with SNB-78 was > 100 µM (inactive) in each case.
In the case of `COc1c(O)cc2c(c1O)C(=O)C(Cc1ccc(O)cc1)CO2` (configuration not stated), the GI50 in the assay with T47D was > 100 µM (inactive).
As for `CCCC(=O)OC(OC(=O)CCC)c1ccc([N+](=O)[O-])o1`, the GI50 with T47D is 21.4 µM (inactive).
As to `Cc1ccc(NC(=O)c2nc(S)nc(N)c2-c2ccccc2C)cc1C`, the GI50 in the assay on HOP-18, in the assay on DMS-273, in the assay with M19-MEL, with DMS-114, in the assay with SNB-78 and in the assay on DLD-1 was > 100 µM (inactive) each time. In the assay with XF498, the GI50 was > 100 µM (inactive).
Turning to `O=C1/C(=C/c2ccc(Cl)cc2)N=C(c2ccccc2)N1c1ccc(S(=O)(=O)Nc2nccs2)cc1`, in the assay on T47D, the GI50 was 21.7 µM (inactive).
In the case of `O=C1CNS(=O)(=O)N1`, the GI50 in the assay with DMS-273, in the assay on M19-MEL, in the assay with DMS-114, in the assay with SNB-78, with DLD-1 and with XF498 was > 100 µM (inactive) in each case.
For the compound `CC(=O)c1c(C)n(C)c2c1nnc1ccccc12`, the GI50 with T47D is > 100 µM (inactive).
As to `O=c1oc2ccc([N+](=O)[O-])cc2c(Nc2ccc3c(c2)Sc2ccccc2O3)c1[N+](=O)[O-]`, the GI50 in the assay with T47D was 40.7 µM (inactive).
The same measure, in the same setting: the same measure for `O/N=C1/Nc2ccccc2C(=S)N2CSCC12` (configuration not stated): 54.2 µM (inactive); for `CCCCCCCCCCCCc1ccsc1-c1ccc(-c2ccc(-c3sccc3CCCCCCCCCCCC)s2)s1`: > 100 µM (inactive).
`CC(O)(c1ccc(OCCC[N+](C)(C)C)cc1)C(C)(O)c1ccc(OCCC[N+](C)(C)C)cc1` (configuration not stated): the GI50 with HOP-18, with DMS-273, in the assay on DMS-114, with SNB-78 and in the assay with DLD-1 was > 100 µM (inactive) in each case.
For the compound `Cl/C(=N\c1cccc2ccccc12)N(c1ccccc1)c1ccccc1`, the GI50 with T47D is 61.4 µM (inactive).
Turning to `CN(/N=C(\C(=O)O)c1ccccc1)C1=NCCN1`, the GI50 with T47D is > 100 µM (inactive).
For the compound `COc1cccc2c1C(=O)c1c(O)c3c(c(O)c1C2=O)C[C@@](O)(C(=O)CO)CC3OC1CC(N(C)CCOCC(OC(C)=O)OC(C)=O)C(O)C(C)O1` (some centres not stated), the GI50 with HOP-18, with M19-MEL, with DMS-114, in the assay with DLD-1 and in the assay with XF498 was > 0.01 µM (active) throughout.
On to `C=CCC(C(=O)O)c1ccccc1` (configuration not stated), for which the GI50 in the assay on T47D was > 100 µM (inactive).
In the case of `O=C1O/C(=C(\Br)c2ccc([N+](=O)[O-])cc2)c2ccccc21`, the GI50 in the assay on T47D is 86.5 µM (inactive).
As for `N#Cc1[nH]c(=O)n(-c2ccc([N+](=O)[O-])cc2)c1N`, in the assay on T47D, the GI50 was > 10 µM (inactive).
On to `CC1CCC23COC(=O)C2C(O)CCC3C1(C)CC(O)c1ccoc1` (configuration not stated), for which the GI50 with HOP-18, with M19-MEL, with DMS-114, with SNB-78, with DLD-1 and in the assay on XF498 was > 100 µM (inactive) in each case.
In the case of `Nc1nc(N)c(N=O)c(Nc2ccc(I)cc2)n1`, the GI50 was 16.5 µM (inactive) with DMS-273; 29.4 µM (inactive) with M19-MEL; 20.7 µM (inactive) in the assay with DMS-114; 18.2 µM (inactive) in the assay on SNB-78; 10 µM (inactive) in the assay with DLD-1.
With `CC1CCCC(C(=O)/C(=C/c2cccc(Cl)c2)C(=O)C(=O)O)C1` (configuration not stated), the GI50 is 91 µM (inactive) with HOP-18; 34.8 µM (inactive) in the assay with DMS-273; 18.7 µM (inactive) in the assay on M19-MEL; 21 µM (inactive) in the assay on DMS-114; 55.2 µM (inactive) in the assay with SNB-78; 20 µM (inactive) in the assay with DLD-1.
For the compound `O=c1n(CCCN2CCOCC2)nc2n1-c1ccc3ccccc3c1SC2`, the GI50 in the assay with T47D was 61.8 µM (inactive).
As for `O=C(NNC(=O)c1ccncc1)C(=O)Nc1cc(Cl)c(Cl)cc1Cl`, the GI50 in the assay on T47D is > 100 µM (inactive).
On to `Cc1nc(=O)n2c(C)n[nH]c2c1C(=O)Nc1cc(Cl)cc(Cl)c1`, for which the values for the GI50 in the assay on M19-MEL, in the assay with SNB-78 and in the assay with DLD-1 were 27.3 µM (inactive), 32.4 µM (inactive) and 19.1 µM (inactive), respectively.
Turning to `CCOC(=O)/C=C/C(Br)=C(Br)/C=C/C(=O)OCC`, the GI50 in the assay on T47D is 14.8 µM (inactive).
For the compound `CCN(CC)CCNc1ccc2nc(C)n3c4ccc(OC)cc4c(=O)c1c23`, the GI50 with DMS-273 is 0.695 µM (active); with T47D it was 17.8 µM (inactive); in the assay on M19-MEL it was 6.59 µM (inactive); with DMS-114, 2.58 µM (inactive); in the assay with DLD-1 it was 0.463 µM (active).
With `O=C(CC(=O)c1ccccc1)C(=O)Nc1ccc(Cl)cc1`, the GI50 was > 100 µM (inactive) in the assay with HOP-18; > 56.5 µM (inactive) in the assay on DMS-273; > 40.4 µM (inactive) in the assay with DMS-114; > 100 µM (inactive) in the assay with SNB-78; > 58.9 µM (inactive) with DLD-1; > 100 µM (inactive) in the assay on XF498.
For the compound `CSc1ccc(C(=O)C(=O)c2ccc(SC)s2)s1`, the GI50 in the assay on T47D was > 10 µM (inactive).
`NC(CCSCC(F)(F)F)C(=O)O` (configuration not stated): the GI50 with HOP-18, in the assay with DMS-273, with M19-MEL, with DMS-114, in the assay on SNB-78 and with DLD-1 was > 100 µM (inactive) each time.
As to `O=C(CC(=O)Nc1ccccc1)NNC(Sc1ccccc1)c1cc(/N=N/c2ccc(Br)cc2)ccc1O` (configuration not stated), the GI50 in the assay on T47D was 3.51 µM (inactive).
The same measure, in the same setting: for `CCOC(CN(C)C(=O)Nc1cccc2ccccc12)OCC` the value was > 10 µM (inactive).
With `O=C1C(O)=C(CCCc2ccc(Oc3ccccc3)cc2)C(=O)c2ccccc21`, the GI50 was 3.89 µM (inactive) in the assay with DMS-273; 7.13 µM (inactive) in the assay with M19-MEL; 4.73 µM (inactive) in the assay on DMS-114; 28.1 µM (inactive) in the assay with SNB-78; 10.4 µM (inactive) with DLD-1; 9.02 µM (inactive) in the assay on XF498.
On to `CC1=C(C(=O)OCCc2ccc([N+](=O)[O-])cc2)C(c2ccccc2[N+](=O)[O-])C(C(=O)OC(C)C)=C(C)N1` (configuration not stated), for which the GI50 with T47D was 3.9 µM (inactive).
The same measure, in the same setting: the same measure for `CCOC(=O)C1=C(C)NC(C)=C(C(=O)OCCNC(=O)c2ccc(N=[N+]=[N-])cc2)C1c1ccccc1C(F)(F)F` (configuration not stated) [AZIDOPINE]: 8.93 µM (inactive); for `O=C1/C(=C\c2ccccc2)C(NC2CCCCC2)c2ccccc21` (configuration not stated): 1.73 µM (inactive).
On the same count and under the same terms, the same measure for `CCOC(=O)C(NC(=O)CC(C)C)(N1CCN(c2cc3c(cc2F)c(=O)c(C(=O)O)cn3C2CC2)CC1)C(F)(F)F` (configuration not stated): 22.9 µM (inactive); for `CC(C)Oc1cccc(N2C(CCc3c[nH]c4ccc(Br)cc34)=NS(=O)(=O)c3cnccc32)c1`: 21.2 µM (inactive); for `O=C1c2ccc3ccccc3c2CCC1N1CCCCC1` (configuration not stated): 21.2 µM (inactive).
Still for that read-out and setting: the same measure for `COC(=O)C1Cc2c(OC)ccc(OC)c2CC(C(=O)OC)C1=O` (configuration not stated): > 100 µM (inactive).
As for `OCCC1(O)CCC(O)CC1` (configuration not stated), the GI50 in the assay on HOP-18, with DMS-273, in the assay on M19-MEL, with DMS-114, in the assay with SNB-78 and in the assay on DLD-1 was > 100 µM (inactive) each time.
As for `COC(=O)c1c(O)ccc2c1c1c(n2CCc2ccccc2)C(=O)c2ccccc2C1=O`, in the assay with T47D, the GI50 was 5.47 µM (inactive).
Regarding `CCCCCCCCCc1cc(=O)c2ccc(OCc3ccccc3)cc2o1`, the GI50 in the assay with HOP-18 is > 100 µM (inactive); in the assay with DMS-273, > 100 µM (inactive); with M19-MEL, 69.7 µM (inactive); in the assay on DMS-114 it was 92.9 µM (inactive); with SNB-78, > 100 µM (inactive); in the assay on DLD-1, > 100 µM (inactive). In the assay on XF498, the GI50 is > 100 µM (inactive).
As for `CC1(C)C(=O)N=C(N)N1C(=O)OCc1ccccc1`, the GI50 in the assay with T47D was > 100 µM (inactive).
On the same count and under the same terms, the same measure for `N#Cc1nc(/C=C/c2nc(C#N)c(N)o2)oc1N`: > 10 µM (inactive); for `O=c1c(=O)c2cscc2c1=O`: 3.66 µM (inactive); for `Cc1cc(C)nc(NS(=O)(=O)c2ccc(NC(=O)c3cc([N+](=O)[O-])cc([N+](=O)[O-])c3)cc2)n1`: 49.4 µM (inactive).

The record behind these values is ChEMBL document CHEMBL1201862, “PubChem BioAssay data set” (2004).
